# Key:
# [1] = system: ORYSAT (Rice, Tebonnet); assay: Preemergence herbicidal evaluation; type: in vivo, Oryza sativa, (L.) Tebonnet; settings: rated 4-5 weeks after treatment
# Procedure, shortened: (§1)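 Herbicidal effect scored visually, 0-9, at 4 to 5 weeks against a control; compound applied preemergence by aqueous acetone spray to seeded soil at about 0.0156 to 0.500 kg/ha.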
# [2] = system: CASOB (Sicklepod); assay: Postemergence herbicidal evaluation; type: in vivo, Cassia obtusifolia; settings: postemergence
# Procedure, shortened: (§2)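 Two-week-old seedlings sprayed with compound in 50/50 acetone/water plus 0.5% TWEEN 20, at about 0.0156 to 0.500 kg/ha, nozzle at 40 psi. Kept in greenhouse; rated visually 4-5 weeks after treatment on a 0-9 scale versus control, repeat tests averaged.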
# [3] = system: ECHORC (Watergrass (Calif.)); assay: Postemergence weed control under flooded paddy conditions; type: in vivo, Echinochloa oryzoides; settings: postemergence weeds, 3-4 weeks after treatment
# Procedure, shortened: (§3)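 Herbicidal effect is judged by eye on a 0–9 scale versus control, 3–4 weeks after dosing. Dosing is into flood water kept 1.5–3 cm over the soil, at about 0.0313–0.500 kg/ha in aqueous/acetone 50/50 v/v, on 3–5 cm weeds and 1.5–2.5-leaf rice seedlings.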
# [4] = system: TRZAWR (Wheat, Winter, cv Riband); assay: Preemergence herbicidal evaluation; type: in vivo, Triticum aestivum; settings: rated 4-5 weeks after treatment
# Procedure, shortened: as §1
# [5] = system: CYPIR (Rice Flatsedge); assay: Preemergence weed control under flooded paddy conditions; type: in vivo, Cyperus iria; settings: rated 3-4 weeks after treatment
# Procedure, shortened: (§4)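 Visual injury scored 0-9 against control three to four weeks post-treatment, greenhouse-grown. Application: acetone/water (50/50) solutions dosed directly into flood water (1.5-3 cm over silt loam, planted top 0.5 cm), roughly 0.0313 to 0.500 kg/ha active ingredient.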
# [6] = system: CYPSE (Flatsedge); assay: Postemergence weed control under flooded paddy conditions; type: in vivo, Cyperus serotinus; settings: postemergence weeds, 3-4 weeks after treatment
# Procedure, shortened: as §3
# [7] = system: ZEAMX (Corn, Field); assay: Preemergence herbicidal evaluation; type: in vivo, Zea mays; settings: rated 4-5 weeks after treatment
# Procedure, shortened: as §1
# [8] = system: ECHORC (Watergrass (Calif.)); assay: Preemergence weed control under flooded paddy conditions; type: in vivo, Echinochloa oryzoides; settings: rated 3-4 weeks after treatment
# Procedure, shortened: as §4
# [9] = system: GALAP (Galium); assay: Postemergence herbicidal evaluation; type: in vivo, Galium aparine; settings: postemergence
# Procedure, shortened: as §2
# [10] = system: AMBEL (Ragweed, Common); assay: Preemergence herbicidal evaluation; type: in vivo, Ambrosia artemisifolia; settings: rated 4-5 weeks after treatment
# Procedure, shortened: as §1
# [11] = system: CYPSE (Flatsedge); assay: Preemergence weed control under flooded paddy conditions; type: in vivo, Cyperus serotinus; settings: rated 3-4 weeks after treatment
# Procedure, shortened: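 Seeds or propagules sown in top 0.5 cm of silt loam soil, flooded 1.5 to 3 cm above surface throughout. Compound in 50/50 v/v aqueous/acetone pipetted into flood water at about 0.0313 to 0.500 kg/ha. Visual 0-9 rating versus control after three to four weeks in greenhouse.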
# [12] = system: ZEAMX (Corn, Field); assay: Postemergence herbicidal evaluation; type: in vivo, Zea mays; settings: postemergence
# Procedure, shortened: as §2
# [13] = system: CHEAL (Lambsquarters, Common); assay: Preemergence herbicidal evaluation; type: in vivo, Chenopodium album; settings: rated 4-5 weeks after treatment
# Procedure, shortened: as §1
compound,measurement,setting,value
"O=C1CSC(=Nc2cc(N3C(=O)C4=C(CCCC4)C3=O)c(F)cc2Cl)N1c1ccccc1 [Compound 3, N-{4-chloro-2-fluoro-5-[(4-oxo-3-phenyl-2-thiazolidinylidene)amino]phenyl}-1-cyclohexene-1,2-dicarboximide]",ORYSAT preemergence herbicidal rating,[1]; rate 0.0313 kg/ha,0.0
same,ORYSAT preemergence herbicidal rating,[1]; rate 0.0625 kg/ha,0.0
same,ORYSAT preemergence herbicidal rating,[1]; rate 0.1250 kg/ha,0.0
same,ORYSAT preemergence herbicidal rating,[1]; rate 0.2500 kg/ha,0.0
same,ORYSAT preemergence herbicidal rating,[1]; rate 0.5000 kg/ha,1.0
same,CASOB herbicidal rating,[2]; rate 0.0157 kg/ha,0.0
same,CASOB herbicidal rating,[2]; rate 0.0313 kg/ha,0.0
same,CASOB herbicidal rating,[2]; rate 0.0625 kg/ha,0.0
same,CASOB herbicidal rating,[2]; rate 0.1250 kg/ha,0.0
same,CASOB herbicidal rating,[2]; rate 0.2500 kg/ha,6.0
same,CASOB herbicidal rating,[2]; rate 0.5000 kg/ha,4.0
same,Herbicidal rating ECHORC,[3]; rate 0.0625 kg/ha,0.0
same,Herbicidal rating ECHORC,[3]; rate 0.1250 kg/ha,0.0
same,Herbicidal rating ECHORC,[3]; rate 0.2500 kg/ha,1.0
same,Herbicidal rating ECHORC,[3]; rate 0.5000 kg/ha,2.0
same,TRZAWR preemergence herbicidal rating,[4]; rate 0.0313 kg/ha,0.0
same,TRZAWR preemergence herbicidal rating,[4]; rate 0.0625 kg/ha,0.0
same,TRZAWR preemergence herbicidal rating,[4]; rate 0.1250 kg/ha,0.0
same,TRZAWR preemergence herbicidal rating,[4]; rate 0.2500 kg/ha,2.0
same,TRZAWR preemergence herbicidal rating,[4]; rate 0.5000 kg/ha,2.0
same,Herbicidal rating CYPIR,[5]; 0.0625 kg/ha,0.0
same,Herbicidal rating CYPIR,[5]; 0.1250 kg/ha,0.0
same,Herbicidal rating CYPIR,[5]; 0.2500 kg/ha,0.0
same,Herbicidal rating CYPIR,[5]; 0.5000 kg/ha,0.0
same,Herbicidal rating CYPSE,[6]; rate 0.0625 kg/ha,0.0
same,Herbicidal rating CYPSE,[6]; rate 0.1250 kg/ha,0.0
same,Herbicidal rating CYPSE,[6]; rate 0.2500 kg/ha,0.0
same,Herbicidal rating CYPSE,[6]; rate 0.5000 kg/ha,0.0
same,ZEAMX preemergence herbicidal rating,[7]; rate 0.0313 kg/ha,0.0
same,ZEAMX preemergence herbicidal rating,[7]; rate 0.0625 kg/ha,0.0
same,ZEAMX preemergence herbicidal rating,[7]; rate 0.1250 kg/ha,1.0
same,ZEAMX preemergence herbicidal rating,[7]; rate 0.2500 kg/ha,2.0
same,ZEAMX preemergence herbicidal rating,[7]; rate 0.5000 kg/ha,4.0
same,Herbicidal rating ECHORC,[8]; 0.0625 kg/ha,0.0
same,Herbicidal rating ECHORC,[8]; 0.1250 kg/ha,0.0
same,Herbicidal rating ECHORC,[8]; 0.2500 kg/ha,2.0
same,Herbicidal rating ECHORC,[8]; 0.5000 kg/ha,4.0
same,GALAP herbicidal rating,[9]; rate 0.0157 kg/ha,9.0
same,GALAP herbicidal rating,[9]; rate 0.0313 kg/ha,2.0
same,GALAP herbicidal rating,[9]; rate 0.0625 kg/ha,4.0
same,GALAP herbicidal rating,[9]; rate 0.1250 kg/ha,4.0
same,GALAP herbicidal rating,[9]; rate 0.2500 kg/ha,6.0
same,GALAP herbicidal rating,[9]; rate 0.5000 kg/ha,9.0
same,AMBEL preemergence herbicidal rating,[10]; rate 0.0313 kg/ha,0.0
same,AMBEL preemergence herbicidal rating,[10]; rate 0.0625 kg/ha,0.0
same,AMBEL preemergence herbicidal rating,[10]; rate 0.1250 kg/ha,2.0
same,AMBEL preemergence herbicidal rating,[10]; rate 0.2500 kg/ha,2.0
same,AMBEL preemergence herbicidal rating,[10]; rate 0.5000 kg/ha,7.0
same,Herbicidal rating CYPSE,[11]; 0.0625 kg/ha,0.0
same,Herbicidal rating CYPSE,[11]; 0.1250 kg/ha,0.0
same,Herbicidal rating CYPSE,[11]; 0.2500 kg/ha,0.0
same,Herbicidal rating CYPSE,[11]; 0.5000 kg/ha,0.0
same,ZEAMX herbicidal rating,[12]; rate 0.0157 kg/ha,3.0
same,ZEAMX herbicidal rating,[12]; rate 0.0313 kg/ha,3.0
same,ZEAMX herbicidal rating,[12]; rate 0.0625 kg/ha,3.0
same,ZEAMX herbicidal rating,[12]; rate 0.1250 kg/ha,3.0
same,ZEAMX herbicidal rating,[12]; rate 0.2500 kg/ha,3.5
same,ZEAMX herbicidal rating,[12]; rate 0.5000 kg/ha,3.5
same,CHEAL preemergence herbicidal rating,[13]; rate 0.0313 kg/ha,6.0
same,CHEAL preemergence herbicidal rating,[13]; rate 0.0625 kg/ha,9.0
same,CHEAL preemergence herbicidal rating,[13]; rate 0.1250 kg/ha,9.0
same,CHEAL preemergence herbicidal rating,[13]; rate 0.2500 kg/ha,9.0
same,CHEAL preemergence herbicidal rating,[13]; rate 0.5000 kg/ha,9.0
"CN1C(=O)C(F)SC1=Nc1cc(N2C(=O)C3=C(CCCC3)C2=O)c(F)cc1Cl (centres unmarked) [Compound 5, N-{4-chloro-2-fluoro-5-[(5-fluoro-3-methyl-4-oxo-2-thiazolidinylidene)amino]phenyl}-1-cyclohexene-1,2-dicarboximide]",ORYSAT preemergence herbicidal rating,[1]; rate 0.0625 kg/ha,0.0
same,ORYSAT preemergence herbicidal rating,[1]; rate 0.1250 kg/ha,0.0
same,ORYSAT preemergence herbicidal rating,[1]; rate 0.2500 kg/ha,2.0
same,ORYSAT preemergence herbicidal rating,[1]; rate 0.5000 kg/ha,2.0
same,CASOB herbicidal rating,[2]; rate 0.0157 kg/ha,0.0
same,CASOB herbicidal rating,[2]; rate 0.0313 kg/ha,0.0
same,CASOB herbicidal rating,[2]; rate 0.0625 kg/ha,0.0
same,CASOB herbicidal rating,[2]; rate 0.1250 kg/ha,0.0
same,CASOB herbicidal rating,[2]; rate 0.2500 kg/ha,0.0
same,CASOB herbicidal rating,[2]; rate 0.5000 kg/ha,9.0
same,Herbicidal rating ECHORC,[3]; rate 0.1250 kg/ha,0.5
same,Herbicidal rating ECHORC,[3]; rate 0.2500 kg/ha,1.0
same,Herbicidal rating ECHORC,[3]; rate 0.5000 kg/ha,2.0
same,TRZAWR preemergence herbicidal rating,[4]; rate 0.0625 kg/ha,0.0
same,TRZAWR preemergence herbicidal rating,[4]; rate 0.1250 kg/ha,0.0
same,TRZAWR preemergence herbicidal rating,[4]; rate 0.2500 kg/ha,1.0
same,TRZAWR preemergence herbicidal rating,[4]; rate 0.5000 kg/ha,2.0
same,Herbicidal rating CYPIR,[5]; 0.1250 kg/ha,0.0
same,Herbicidal rating CYPIR,[5]; 0.2500 kg/ha,0.0
same,Herbicidal rating CYPIR,[5]; 0.5000 kg/ha,0.0
same,Herbicidal rating CYPSE,[6]; rate 0.1250 kg/ha,0.0
same,Herbicidal rating CYPSE,[6]; rate 0.2500 kg/ha,0.0
same,Herbicidal rating CYPSE,[6]; rate 0.5000 kg/ha,0.5
same,ZEAMX preemergence herbicidal rating,[7]; rate 0.0625 kg/ha,0.0
same,ZEAMX preemergence herbicidal rating,[7]; rate 0.1250 kg/ha,1.0
same,ZEAMX preemergence herbicidal rating,[7]; rate 0.2500 kg/ha,2.0
same,ZEAMX preemergence herbicidal rating,[7]; rate 0.5000 kg/ha,2.0
same,Herbicidal rating ECHORC,[8]; 0.1250 kg/ha,1.0
same,Herbicidal rating ECHORC,[8]; 0.2500 kg/ha,2.0
same,Herbicidal rating ECHORC,[8]; 0.5000 kg/ha,4.0
same,GALAP herbicidal rating,[9]; rate 0.0157 kg/ha,0.0
same,GALAP herbicidal rating,[9]; rate 0.0313 kg/ha,2.0
same,GALAP herbicidal rating,[9]; rate 0.0625 kg/ha,8.0
same,GALAP herbicidal rating,[9]; rate 0.1250 kg/ha,9.0
same,GALAP herbicidal rating,[9]; rate 0.2500 kg/ha,9.0
same,GALAP herbicidal rating,[9]; rate 0.5000 kg/ha,9.0
same,AMBEL preemergence herbicidal rating,[10]; rate 0.0625 kg/ha,0.0
same,AMBEL preemergence herbicidal rating,[10]; rate 0.1250 kg/ha,0.0
same,AMBEL preemergence herbicidal rating,[10]; rate 0.2500 kg/ha,0.0
same,AMBEL preemergence herbicidal rating,[10]; rate 0.5000 kg/ha,0.0
same,Herbicidal rating CYPSE,[11]; 0.1250 kg/ha,0.0
same,Herbicidal rating CYPSE,[11]; 0.2500 kg/ha,0.0
same,Herbicidal rating CYPSE,[11]; 0.5000 kg/ha,1.0
same,ZEAMX herbicidal rating,[12]; rate 0.0157 kg/ha,3.5
same,ZEAMX herbicidal rating,[12]; rate 0.0313 kg/ha,3.5
same,ZEAMX herbicidal rating,[12]; rate 0.0625 kg/ha,4.0
same,ZEAMX herbicidal rating,[12]; rate 0.1250 kg/ha,3.5
same,ZEAMX herbicidal rating,[12]; rate 0.2500 kg/ha,4.0
same,ZEAMX herbicidal rating,[12]; rate 0.5000 kg/ha,3.5
same,CHEAL preemergence herbicidal rating,[13]; rate 0.0625 kg/ha,4.0
same,CHEAL preemergence herbicidal rating,[13]; rate 0.1250 kg/ha,5.0
same,CHEAL preemergence herbicidal rating,[13]; rate 0.2500 kg/ha,9.0
same,CHEAL preemergence herbicidal rating,[13]; rate 0.5000 kg/ha,9.0

# From US20020137929A1, “1 - (3-heterocyclylphenyl) isothiourea, -isourea, -guanidine and -amidine herbicidal agents” (Intellectual Property Department, BASF Aktiengesellschaft, priority 1998, published 2002)
